Values after ≈ are worked out from the molar mass of the structure shown. Active and inactive are the calls of the source. No cut-off for these calls is given here.
Legend:
[1] = (§1) Cytotoxicity against human HepG2 cells after 48 hrs by Celltiter-Glo assay; format: cell-based; details: HepG2 cells, read-out: TC50
in vitro = details: human, HepG2 cells
Description: Selectivity ratio TC50 for human HepG2 cells to EC50 for Trypanosoma brucei brucei Lister 427

[2] = tested on: Trypanosoma brucei brucei; experiment: microbe, parasite or virus in culture; details: Lister 427, 70 h
Description: Antitrypanosomal activity against bloodstream Trypanosoma brucei brucei Lister 427 after 70 hrs by resazurin assay

[3] = target: Phosphatidylinositol 4,5-bisphosphate 3-kinase catalytic subunit alpha isoform (Homo sapiens, UniProt P42336); experiment: Inhibition of human PI3K-alpha assessed as inhibition of […] after 1 hr by TR-FRET analysis
[4] = Apparent permeability across artificial membrane after 3 hrs by HPLC analysis; format: physicochemical
[5] = target: Serine/threonine-protein kinase mTOR (Homo sapiens, UniProt P42345); experiment: Inhibition of human recombinant mTOR assessed as inhibition of 4EBP1 phosphorylation after 30 mins by TR-FRET analysis
[6] = Lipophilicity, log D of the compound at pH 7.4 by HPLC analysis; format: physicochemical; details: buffer
[7] = target: Phosphatidylinositol 4,5-bisphosphate 3-kinase catalytic subunit beta isoform (Homo sapiens, UniProt P42338); experiment: Inhibition of human PI3K-beta assessed as inhibition of […] after 1 hr by TR-FRET analysis
[8] = target: T1, Phosphatidylinositol 4,5-bisphosphate 3-kinase catalytic subunit delta isoform (Homo sapiens, UniProt O00329); experiment: Inhibition of human PI3K-delta assessed as inhibition of […] after 1 hr by TR-FRET analysis
T1 sequence (O00329 whole entry): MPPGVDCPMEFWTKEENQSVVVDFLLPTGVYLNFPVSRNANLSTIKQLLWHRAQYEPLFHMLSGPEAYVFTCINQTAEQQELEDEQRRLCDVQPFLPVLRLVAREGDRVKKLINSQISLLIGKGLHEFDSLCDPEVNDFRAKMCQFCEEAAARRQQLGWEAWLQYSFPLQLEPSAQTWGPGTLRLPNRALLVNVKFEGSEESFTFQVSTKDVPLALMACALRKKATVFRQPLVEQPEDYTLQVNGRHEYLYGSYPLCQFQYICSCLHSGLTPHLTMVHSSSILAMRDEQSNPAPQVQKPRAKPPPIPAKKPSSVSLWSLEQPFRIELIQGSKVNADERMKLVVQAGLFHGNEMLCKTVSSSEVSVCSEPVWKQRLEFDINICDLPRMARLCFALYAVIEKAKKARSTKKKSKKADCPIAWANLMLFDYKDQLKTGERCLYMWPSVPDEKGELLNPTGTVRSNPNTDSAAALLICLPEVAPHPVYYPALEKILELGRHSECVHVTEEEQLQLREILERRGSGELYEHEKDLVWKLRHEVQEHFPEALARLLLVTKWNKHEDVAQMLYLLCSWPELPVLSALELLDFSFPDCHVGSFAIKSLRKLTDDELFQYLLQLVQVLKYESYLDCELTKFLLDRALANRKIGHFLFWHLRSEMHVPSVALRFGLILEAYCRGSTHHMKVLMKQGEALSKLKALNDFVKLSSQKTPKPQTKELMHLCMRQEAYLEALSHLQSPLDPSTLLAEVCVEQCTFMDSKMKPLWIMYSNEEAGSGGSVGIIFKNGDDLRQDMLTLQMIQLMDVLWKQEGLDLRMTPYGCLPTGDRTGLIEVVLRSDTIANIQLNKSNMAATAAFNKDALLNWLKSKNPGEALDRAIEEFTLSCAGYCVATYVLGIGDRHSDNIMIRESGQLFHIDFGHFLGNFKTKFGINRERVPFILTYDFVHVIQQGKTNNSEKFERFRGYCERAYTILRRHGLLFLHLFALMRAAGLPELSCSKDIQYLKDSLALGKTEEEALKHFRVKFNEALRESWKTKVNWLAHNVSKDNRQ

[9] = target: Phosphatidylinositol 4,5-bisphosphate 3-kinase catalytic subunit gamma isoform (Homo sapiens, UniProt P48736); experiment: Inhibition of human PI3K-gamma assessed as inhibition of […] after 1 hr by TR-FRET analysis
[10] = tested on: Trypanosoma brucei brucei; experiment: Effect on phosphatidylcholine level in Trypanosoma brucei brucei Lister 427 at 200 nM after 12 hrs by ES-MS analysis; format: functional, organism-based
[11] = tested on: Trypanosoma brucei brucei; experiment: Effect on phosphotidyl inositol level in Trypanosoma brucei brucei Lister 427 at 200 nM after 12 hrs by ES-MS analysis; format: functional, organism-based
[12] = tested on: Trypanosoma brucei brucei; experiment: Decrease in phosphotidyl inositol phosphate level in Trypanosoma brucei brucei Lister 427 at 200 nM after 12 hrs by ES-MS analysis; format: functional, organism-based
[13] = Solubility of compound in phosphate buffer at pH 7.4 after 1 hr; format: physicochemical
[14] = tested on: Trypanosoma brucei brucei; experiment: Inhibition of receptor-mediated endocytosis in Trypanosoma brucei brucei Lister 427 assessed as decrease in transferrin uptake at 2 X EC50 after 18 hrs; format: functional, organism-based
[15] = tested on: Trypanosoma brucei brucei; experiment: Antitrypanosomal activity against bloodstream Trypanosoma brucei brucei Lister 427 assessed as decrease in number of cell at G1 phase after 18 hrs by PI staining based flow cytometer; format: functional, organism-based
[16] = tested on: Trypanosoma brucei brucei; experiment: Effect on sphingomylein level in Trypanosoma brucei brucei Lister 427 at 200 nM after 12 hrs by ES-MS analysis; format: functional, organism-based
HepG2 = experiment: as §1; format: cell-based; details: hepg2, 48 h

Phosphatidylinositol 4,5-bisphosphate 3-kinase catalytic subunit gamma isoform, sequence (P48736 whole entry, canonical isoform): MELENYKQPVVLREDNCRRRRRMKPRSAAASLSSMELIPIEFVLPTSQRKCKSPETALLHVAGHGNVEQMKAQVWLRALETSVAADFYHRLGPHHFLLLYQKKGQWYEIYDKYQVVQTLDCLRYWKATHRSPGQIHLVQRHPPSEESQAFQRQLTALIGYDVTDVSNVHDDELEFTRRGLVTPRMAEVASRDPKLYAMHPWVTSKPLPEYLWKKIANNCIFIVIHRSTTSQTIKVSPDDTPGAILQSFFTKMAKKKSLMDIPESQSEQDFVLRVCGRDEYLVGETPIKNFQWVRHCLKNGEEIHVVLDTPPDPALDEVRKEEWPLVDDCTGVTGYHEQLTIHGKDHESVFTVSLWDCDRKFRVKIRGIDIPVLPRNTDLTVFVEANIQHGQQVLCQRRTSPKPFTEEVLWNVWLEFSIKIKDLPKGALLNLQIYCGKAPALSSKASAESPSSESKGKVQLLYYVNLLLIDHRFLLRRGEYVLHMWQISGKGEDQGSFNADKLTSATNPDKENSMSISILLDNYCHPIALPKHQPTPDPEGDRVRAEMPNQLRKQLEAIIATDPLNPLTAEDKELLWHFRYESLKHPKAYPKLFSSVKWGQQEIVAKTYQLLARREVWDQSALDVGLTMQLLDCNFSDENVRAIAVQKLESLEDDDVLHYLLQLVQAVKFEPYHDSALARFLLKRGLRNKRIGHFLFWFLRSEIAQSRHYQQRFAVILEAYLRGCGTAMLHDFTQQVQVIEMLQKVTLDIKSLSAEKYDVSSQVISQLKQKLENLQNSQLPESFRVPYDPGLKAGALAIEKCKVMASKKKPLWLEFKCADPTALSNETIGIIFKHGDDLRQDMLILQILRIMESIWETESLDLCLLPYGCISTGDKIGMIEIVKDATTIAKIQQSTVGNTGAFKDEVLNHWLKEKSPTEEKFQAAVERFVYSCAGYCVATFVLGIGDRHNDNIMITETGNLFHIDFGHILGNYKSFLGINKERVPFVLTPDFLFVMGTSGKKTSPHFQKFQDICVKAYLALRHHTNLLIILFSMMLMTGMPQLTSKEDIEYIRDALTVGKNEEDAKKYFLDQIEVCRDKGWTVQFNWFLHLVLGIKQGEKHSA
Phosphatidylinositol 4,5-bisphosphate 3-kinase catalytic subunit beta isoform, sequence (P42338 whole entry, canonical isoform): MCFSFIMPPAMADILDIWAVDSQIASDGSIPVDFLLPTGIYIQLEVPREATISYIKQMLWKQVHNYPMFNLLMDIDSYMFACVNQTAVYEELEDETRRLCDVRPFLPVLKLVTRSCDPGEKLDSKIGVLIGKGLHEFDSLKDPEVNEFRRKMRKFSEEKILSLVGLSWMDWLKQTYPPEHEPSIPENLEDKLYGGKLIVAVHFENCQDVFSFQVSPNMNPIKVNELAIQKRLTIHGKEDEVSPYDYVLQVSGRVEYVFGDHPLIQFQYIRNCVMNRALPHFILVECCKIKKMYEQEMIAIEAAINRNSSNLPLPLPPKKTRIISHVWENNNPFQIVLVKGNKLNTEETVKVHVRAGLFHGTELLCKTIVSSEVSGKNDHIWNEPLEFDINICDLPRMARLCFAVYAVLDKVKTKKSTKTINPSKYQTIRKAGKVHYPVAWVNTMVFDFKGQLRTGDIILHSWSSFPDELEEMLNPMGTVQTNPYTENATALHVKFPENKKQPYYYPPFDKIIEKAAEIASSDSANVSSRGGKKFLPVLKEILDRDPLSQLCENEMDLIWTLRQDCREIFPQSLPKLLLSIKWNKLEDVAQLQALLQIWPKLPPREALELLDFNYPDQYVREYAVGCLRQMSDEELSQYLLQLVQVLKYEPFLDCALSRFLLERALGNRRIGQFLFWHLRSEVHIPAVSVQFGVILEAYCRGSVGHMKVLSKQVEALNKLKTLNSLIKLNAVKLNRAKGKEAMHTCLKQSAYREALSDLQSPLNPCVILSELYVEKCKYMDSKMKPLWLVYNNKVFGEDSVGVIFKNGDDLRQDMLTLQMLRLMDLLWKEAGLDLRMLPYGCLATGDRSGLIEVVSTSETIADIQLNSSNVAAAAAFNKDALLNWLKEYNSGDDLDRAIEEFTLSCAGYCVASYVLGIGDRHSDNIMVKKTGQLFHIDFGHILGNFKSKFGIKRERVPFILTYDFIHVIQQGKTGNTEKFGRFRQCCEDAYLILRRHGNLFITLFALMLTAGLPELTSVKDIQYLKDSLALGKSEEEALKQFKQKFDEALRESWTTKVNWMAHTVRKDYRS
Phosphatidylinositol 4,5-bisphosphate 3-kinase catalytic subunit alpha isoform, sequence (P42336 whole entry, canonical isoform): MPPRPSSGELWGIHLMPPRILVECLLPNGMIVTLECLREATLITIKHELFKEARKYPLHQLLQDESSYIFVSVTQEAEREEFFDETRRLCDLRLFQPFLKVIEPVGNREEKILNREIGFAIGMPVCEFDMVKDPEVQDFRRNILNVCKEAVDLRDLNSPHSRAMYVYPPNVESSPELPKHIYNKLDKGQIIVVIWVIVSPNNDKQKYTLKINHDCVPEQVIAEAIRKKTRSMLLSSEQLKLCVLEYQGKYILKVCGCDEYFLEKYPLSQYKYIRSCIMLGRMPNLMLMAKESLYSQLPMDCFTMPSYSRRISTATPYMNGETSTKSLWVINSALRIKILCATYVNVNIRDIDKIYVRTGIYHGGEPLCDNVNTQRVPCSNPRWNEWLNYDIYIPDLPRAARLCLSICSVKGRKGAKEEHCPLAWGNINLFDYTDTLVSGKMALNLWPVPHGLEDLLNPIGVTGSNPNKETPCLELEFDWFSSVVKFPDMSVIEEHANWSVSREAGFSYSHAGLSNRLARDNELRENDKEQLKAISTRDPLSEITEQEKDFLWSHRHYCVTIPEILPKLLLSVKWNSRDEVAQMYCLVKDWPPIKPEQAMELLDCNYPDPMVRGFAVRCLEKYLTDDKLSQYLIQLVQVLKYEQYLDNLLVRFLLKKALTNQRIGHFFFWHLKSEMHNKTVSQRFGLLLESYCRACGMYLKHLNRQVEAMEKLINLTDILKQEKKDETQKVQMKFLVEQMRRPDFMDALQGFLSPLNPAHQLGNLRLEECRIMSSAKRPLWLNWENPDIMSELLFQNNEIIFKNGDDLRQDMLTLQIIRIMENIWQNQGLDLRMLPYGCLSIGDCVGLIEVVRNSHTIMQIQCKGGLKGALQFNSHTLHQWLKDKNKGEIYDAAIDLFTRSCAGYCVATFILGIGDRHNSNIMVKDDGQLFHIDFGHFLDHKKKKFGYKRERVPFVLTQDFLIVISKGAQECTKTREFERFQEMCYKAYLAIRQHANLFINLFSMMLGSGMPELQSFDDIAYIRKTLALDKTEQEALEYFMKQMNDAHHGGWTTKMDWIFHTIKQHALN

Compound | CC50 at 48 h [1] [nM] | selectivity ratio (in vitro) | EC50 [2] [nM] | other results
Cn1c(=O)n(C)c2c3cc(-c4ccncc4)ccc3ncc21 | > 20000 | > 6 | 3270 | 
Cn1c(=O)n(-c2ccc(C(C)(C)C#N)cc2)c2c3ccccc3ncc21 | > 50000 | > 80 | 624 | IC50 [3]: 3980 nM; permeability [4]: 57 ×10⁻⁶ cm/s; IC50 [5]: 1620 nM; logD [6]: 4.69; IC50 [7]: > 30000 nM; IC50 [8]: 15800 nM; IC50 [9]: 2000 nM
CN1CCN(c2ccc3ncc4c(c3c2)n(-c2ccc(C(C)(C)C#N)cc2)c(=O)n4C)CC1 | > 50000 |  |  | 
Cn1c(=O)n(-c2ccccc2)c2c3ccccc3ncc21 | > 50000 | > 3 | 18500 | 
Cc1ccc(-n2c(=O)n(C)c3cnc4ccc(-c5ccncc5)cc4c32)cc1 | 4780 | 24 | 202 | Activity [10]: inactive; Activity [11]: Active; IC50 [3]: 631 nM; permeability [4]: 47 ×10⁻⁶ cm/s; IC50 [5]: 468 nM; inhibition [12]: Active; logD [6]: 4.95; IC50 [7]: 31600 nM; solubility kinetic at 1 h [13]: 17 µM (≈ 6.23 µg/mL); IC50 [8]: 2510 nM; IC50 [9]: 251 nM; inhibition [14]: Active; inhibition [15]: inactive; Activity [16]: inactive
Cn1c(=O)n(-c2ccc(C(C)(C)C#N)cc2)c2c3cc(N)ccc3ncc21 | > 50000 | > 4 | 10600 | 
CN(C)c1ccc(-n2c(=O)n(C)c3cnc4ccccc4c32)cc1 | 3000 | 0.3 | 9330 | 
Cn1c(=O)n(-c2ccc(C(C)(C)C#N)cc2)c2c3cc(N4CCOCC4)ccc3ncc21 | > 50000 | > 24 | 2040 | 
N#Cc1ccc(-n2c(=O)[nH]c3cnc4ccc(-c5cnc6ccccc6c5)cc4c32)cc1 | > 50000 | > 270 | 184 | 
COc1ccc(-n2c(=O)n(C)c3cnc4ccc(-c5ccncc5)cc4c32)cc1 | 11200 | 67 | 166 | Activity [10]: inactive; Activity [11]: Active; IC50 [3]: 501 nM; permeability [4]: 86 ×10⁻⁶ cm/s; IC50 [5]: 380 nM; inhibition [12]: Active; logD [6]: 5.32; IC50 [7]: 7940 nM; solubility kinetic at 1 h [13]: 22 µM (≈ 8.41 µg/mL); IC50 [8]: 2510 nM; IC50 [9]: 316 nM; inhibition [14]: Active; inhibition [15]: inactive; Activity [16]: inactive
Cn1c(=O)n(-c2ccc(C(C)(C)C#N)cc2)c2c3cc(-c4ccncc4)ccc3ncc21 | 3430 | 25 | 136 | 
Cn1c(=O)n(-c2ccc(C#N)cc2)c2c3cc(-c4cnc5ccccc5c4)ccc3ncc21 | > 50000 | > 540 | 91 | 
Cn1c(=O)n(-c2ccc(C(F)(F)F)cc2)c2c3cc(-c4cnc5ccccc5c4)ccc3ncc21 | > 25000 | > 240 | 103 | 
Cn1c(=O)n(-c2ccccc2)c2c3cc(-c4cnc5ccccc5c4)ccc3ncc21 | > 25000 | > 1000 | 24 | 
Cc1ccc2ncc3c(c2c1)n(-c1ccccc1)c(=O)n3C | > 50000 | > 39 | 1300 | 
Cn1c(=O)n(-c2ccc(N3CCOCC3)cc2)c2c3cc(-c4ccncc4)ccc3ncc21 | > 7600 | > 24 | 316 | 
Cn1c(=O)n(-c2ccc(C(C)(C)C#N)cc2)c2c3cc(-c4cc5ccccc5s4)ccc3ncc21 | > 25000 | > 460 | 54 | 

Compound | CC50 at 48 h [1] [nM] | selectivity ratio (in vitro) | EC50 [2] [nM] | other results
Cn1c(=O)n(-c2ccc(CC#N)cc2)c2c3cc(-c4ccncc4)ccc3ncc21 | > 50000 | > 560 | 88 | 
CN(C)c1ccc(-n2c(=O)n(C)c3cnc4ccc(-c5ccncc5)cc4c32)cc1 | 2340 | 28 | 82 | 
Cn1c(=O)n(-c2ccc(C(C)(C)C#N)cc2)c2c3cc(-c4cccnc4)ccc3ncc21 | 575 | 36 | 16 | 
Cc1ccc(-n2c(=O)n(C)c3cnc4ccc(-c5ccc(C(=O)O)cc5)cc4c32)cc1 | > 50000 | > 5 | 9890 | 
Cn1c(=O)n(-c2ccc(C(C)(C)C#N)cc2)c2c3cc(-c4cnc5ccccc5c4)ccc3ncc21 [DACTOLISIB] |  |  |  | Activity [10]: inactive; Activity [11]: Active; TC50 (HepG2): ND(Insoluble); permeability [4]: ND(Insoluble); inhibition [12]: Active; logD [6]: 6.44; solubility kinetic at 1 h [13]: 19 µM (≈ 8.92 µg/mL); inhibition [14]: Active; inhibition [15]: inactive; Activity [16]: inactive
CC(=O)Nc1ccc2ncc3c(c2c1)n(-c1ccc(C(C)(C)C#N)cc1)c(=O)n3C | > 50000 | > 5 | 9020 | 
Cc1ccc2ncc3c(c2c1)n(-c1ccc(C(C)(C)C#N)cc1)c(=O)n3C | > 20000 | > 10 | 2020 | 
CN(C)c1ccc(-n2c(=O)[nH]c3cnc4ccc(-c5ccncc5)cc4c32)cc1 | > 50000 | > 1100 | 42 | 
CN(C)c1ccc(-n2c(=O)[nH]c3cnc4ccccc4c32)cc1 | 19000 | 3 | 6240 | 
N#CCc1ccc(-n2c(=O)[nH]c3cnc4ccc(-c5ccncc5)cc4c32)cc1 | > 50000 | > 250 | 199 | 
Cn1c(=O)n(-c2ccc(C#N)cc2)c2c3cc(-c4ccncc4)ccc3ncc21 |  |  | 72 | TC50 (HepG2): ND(Insoluble)
Cn1c(=O)n(-c2ccc(C(C)(C)C#N)cc2)c2c3cc(C#Cc4cccnc4)ccc3ncc21 | 140 | 17.5 | 8 | 
CN1CCN(Cc2ccc(-n3c(=O)n(C)c4cnc5ccc(-c6ccncc6)cc5c43)cc2)CC1 | > 7600 | > 2 | 3350 | 
Cn1cc(-c2ccc3ncc4c(c3c2)n(-c2ccc(C(C)(C)C#N)cc2)c(=O)n4C)cn1 |  |  | 51 | Activity [10]: inactive; Activity [11]: Active; IC50 [3]: 398 nM; permeability [4]: ND(Insoluble); IC50 [5]: 1170 nM; inhibition [12]: Active; logD [6]: 5.3; IC50 [7]: 7940 nM; IC50 [8]: 794 nM; IC50 [9]: 126 nM; inhibition [14]: inactive; inhibition [15]: Active; Activity [16]: inactive
Cn1c(=O)n(-c2ccc(C(C)(C)C#N)cc2)c2c3cc(-c4ccc(C(F)(F)F)nc4)ccc3ncc21 | > 25000 | > 470 | 53 | 
Cn1c(=O)n(-c2ccc(C(C)(C)C#N)cc2)c2c3cc(-c4ccccc4)ccc3ncc21 | 1820 | 11 | 159 | 

Source: ChEMBL document CHEMBL3286093 (J Med Chem, 2014)
